Laboratory results: patent publication US6387881B1, “Inhibitors and substrates of thrombin” (priority 1992, dated 2002)
Several values for one entry are separate records, joined by “and”; a condition that tells them apart may be missing. Identical values can stand only once. Like-named read-outs stand apart in the source and are kept apart here.

Legend:
[1] = tested on: citrated normal human plasma; assay: Activated partial thromboplastin time (APTT) for in vitro samples; assay type: biochemical
Method: (§1) A volume of 150 μl of citrated (3.2%) normal human plasma was incubated at 37° C. with sample (20 μl) or buffer (20 μl, control) for 1 min. To the solution was added reconstituted “AUTOMATED APTT” (available from Organon Teknika, 0.1 ml). Each solution was activated at 37° C. for 5 min.
(§2) After activation, calcium chloride (0.1 ml, 0.025M, prewarmed at 37° C.) was added and clot detection was timed using a “semiautomated coagulometer” (Nach, Schnicter und Gross).

human α-thrombin = human α-thrombin (Homo sapiens, UniProt P00734); assay: biochemical; assay type: biochemical; settings: read-out: Ki
Method: The inhibition of human α-thrombin was determined by the inhibition of the enzyme catalyzed hydrolysis of three different concentrations of the chromogenic substrate S-2238.
200 μl of sample or buffer and 50 μl of S-2238 were incubated at 37° C. for 1 min and 50 μl of human α-thrombin (0.25 NIHu/ml) was added. The initial rate of inhibited and uninhibited reactions were recorded at 405 nm. The increase in optical density was plotted according to the method of Lineweaver and Burke. The Km and apparent Km were determined and Ki was calculated using the relationship: [formula]

[2] = tested on: bovine thrombin in plasma samples; assay: Ex-vivo TT; assay type: in vivo, New Zealand white rabbits; parameters: key: thrombin (coagulation) time in seconds; settings: 1 mg/kg i.v. bolus, rabbit
Method: (§3) A volume of 150 μl of citrated normal human plasma and 20 μl of buffer or sample were warmed at 37° C. for 1 min. Coagulation was started by adding 150 ul of freshly prepared bovine thrombin (5 NIHu/ml saline) and the coagulation time was recorded on a coagulometer.
(§4) A phosphate buffer, pH 7.8, containing 0.1% bovine serum albumine and 0.02% sodium azide was used. The samples were dissolved in DMSO and diluted with the buffer. When no inhibitor was used DMSO was added to the buffer to the same concentration as that used in the samples. The inhibitor concentrations were plotted against the thrombin times in a semilogarithmic graph from which the inhibitor concentration that caused a doubling (40 sec) of the thrombin time was determined.
(§5) Data was obtained as for in-vitro tests, but using plasma samples obtained at 0, 1, 10, 30 and 60 minutes after dosing of 1 mg/kg, i.v. bolus injection in a marginal ear vein in New Zealand white rabbits, which were anaesthetized from a canula in the carotid artery. [drawing 18]

[3] = tested on: 111indium-labelled platelets; assay: Deposition of 111indium-labelled platelets after intravenous dose; assay type: in vivo, New Zealand white rabbits; settings: 1 mg/kg i.v. dose
Excerpt: M. Hero, K. D. Butler, C. […] Peripheral blood pressure was monitored by a pressure sensor in the carotid artery.

Xa = target: T1, Xa (Homo sapiens, UniProt P00742); assay: IC50 against Xa; assay type: biochemical
T1 construct: Plasmin; Xa; Urokinase
T1 sequence (P00742 41-179 limits assumed): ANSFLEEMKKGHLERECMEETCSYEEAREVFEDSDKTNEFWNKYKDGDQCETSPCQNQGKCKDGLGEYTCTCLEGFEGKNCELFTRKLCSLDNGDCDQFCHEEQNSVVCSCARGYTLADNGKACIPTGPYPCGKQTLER
T1 sequence (P00742 235-488 limits assumed): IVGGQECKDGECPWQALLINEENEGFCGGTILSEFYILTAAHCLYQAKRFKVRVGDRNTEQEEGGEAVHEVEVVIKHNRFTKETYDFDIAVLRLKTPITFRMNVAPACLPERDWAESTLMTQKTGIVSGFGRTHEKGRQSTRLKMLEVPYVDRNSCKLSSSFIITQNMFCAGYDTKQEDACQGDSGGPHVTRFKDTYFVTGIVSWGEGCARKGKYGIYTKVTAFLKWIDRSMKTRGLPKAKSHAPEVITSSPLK

Urokinase = Urokinase (Homo sapiens, UniProt P00749); assay: IC50 against urokinase; assay type: biochemical
plasma samples = assay: Ex-vivo APTT; assay type: in vivo, New Zealand white rabbits; parameters: unit not given here; settings: 1 mg/kg i.v. bolus, rabbit
Method: as §1, §2, §5

[4] = IC50 with and without incubation (enzyme not given); assay type: biochemical
Kalhikrein = assay: IC50 against kallikrein; assay type: biochemical
Plasmin = Plasmin (Homo sapiens, UniProt P00747); assay: IC50 against plasmin; assay type: biochemical
Chain of Plasmin (P00747 97-580 limits assumed, species assumed): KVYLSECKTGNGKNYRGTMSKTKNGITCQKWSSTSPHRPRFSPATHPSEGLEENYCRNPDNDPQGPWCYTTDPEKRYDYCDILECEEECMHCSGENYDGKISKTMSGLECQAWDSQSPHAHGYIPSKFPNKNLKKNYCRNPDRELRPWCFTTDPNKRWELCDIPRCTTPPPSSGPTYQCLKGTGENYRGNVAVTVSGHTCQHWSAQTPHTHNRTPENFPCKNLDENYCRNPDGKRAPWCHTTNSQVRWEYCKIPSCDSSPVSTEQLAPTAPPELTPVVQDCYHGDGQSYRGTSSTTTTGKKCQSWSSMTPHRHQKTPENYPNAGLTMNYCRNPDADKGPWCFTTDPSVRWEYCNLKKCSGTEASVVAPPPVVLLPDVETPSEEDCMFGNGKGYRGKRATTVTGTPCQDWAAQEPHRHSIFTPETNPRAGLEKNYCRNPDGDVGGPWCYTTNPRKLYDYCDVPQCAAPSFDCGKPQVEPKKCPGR
Chain of Plasmin (P00747 581-810 limits assumed, species assumed): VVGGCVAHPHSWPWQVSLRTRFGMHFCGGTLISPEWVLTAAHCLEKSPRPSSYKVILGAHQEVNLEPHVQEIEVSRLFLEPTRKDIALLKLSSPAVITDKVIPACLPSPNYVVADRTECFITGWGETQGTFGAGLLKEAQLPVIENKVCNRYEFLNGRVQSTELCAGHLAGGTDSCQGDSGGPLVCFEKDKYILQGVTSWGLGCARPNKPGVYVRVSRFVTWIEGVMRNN

[5] = Peripheral blood pressure after intravenous dose; assay type: in vivo, New Zealand white rabbits; settings: 1 mg/kg i.v. dose
Excerpt: […] R. May, C. M. Hero, K. D. Butler, C. P. Page, JOURNAL OF PHARMACOLOGICAL METHODS, 24, pp 1-35, 1990. Peripheral blood pressure was monitored by a pressure sensor in the carotid artery.

[6] = target: T2, bovine thrombin in citrated normal human plasma (Bos taurus, UniProt P00735); assay: Plasma thrombin time (TT), in vitro; assay type: biochemical; settings: inhibitor concentration that caused a doubling of the thrombin time
T2 construct: freshly prepared bovine thrombin (5 NIHu/ml saline)
Method: as §3, §4

[7] = no incubation, read-out: IC50 No Incubations
[8] = human α-thrombin, S-2238, 37° C.

## N=C(N)NCCCC(NC(=O)C1CCCN1C(=O)C(N)C(c1ccccc1)c1ccccc1)C(=O)CCC(=O)N1CCCCC1 (mixture of isomers) [Compound 4, D,L-Dpa-Pro-Arg--k--Gly-Pip]
[1]
  APTT: 45.0 µM
Human α-thrombin
  Ki: 0.6 µM

## N=C(N)NCCCC(NC(=O)C1CCCN1C(=O)C(N)C(c1ccccc1)c1ccccc1)C(=O)CCC(=O)N1CCCCC1.O=C(O)C(F)(F)F.O=C(O)C(F)(F)F [Compound 6, D-Dpa-Pro-Arg--k--Gly-Pip]
[2]; time 0 min
  EX-VIVO T.T.: 24.4 and 25.6 and 32.9 and 27.9
[2]; time 1 min
  EX-VIVO T.T.: 176 and 200 and 260 and >200
[2]; time 10 min
  EX-VIVO T.T.: 55 and 61.4 and 76 and 57.5
[2]; time 30 min
  EX-VIVO T.T.: 33 and 36.9 and 62 and 36
[2]; time 60 min
  EX-VIVO T.T.: 25 and 27.9 and 49 and 31.5
[3]
  PLATELET ACCUMULATION (% OF NORMAL) LEG: NONE
  PLATELET ACCUMULATION (% OF NORMAL) LUNG: NONE
Xa; single value given, incubation not given, read-out: Xa no inc/inc
  IC50: 149 µM
Urokinase; single value given, incubation not given, read-out: Urokinase no inc/inc
  IC50: 494 µM
[1]
  APTT: 8.0 µM
Plasma samples; time 1 min
  EX-VIVO A.P.T.T.: 46 and 78
Plasma samples; time 10 min
  EX-VIVO A.P.T.T.: 32 and 55
Plasma samples; time 30 min
  EX-VIVO A.P.T.T.: 34 and 57
Plasma samples; time 60 min
  EX-VIVO A.P.T.T.: 27 and 42
[4]; [7]
  IC50: 0.2 µM
Kalhikrein; single value given, incubation not given, read-out: Kalhikrein no inc/inc
  IC50: 199 µM
Plasmin; single value given, incubation not given, read-out: Plasmin no inc/inc
  IC50: > 157 µM
Human α-thrombin
  Ki: 0.2 µM
[5]
  BLOOD PRESSURE Δ% of NORM: NONE
[6]
  TT: 0.65 µM

## N=C(N)NCCCC(NC(=O)C1CCCN1C(=O)C(N)C(c1ccccc1)c1ccccc1)C(=O)CCC(=O)N1CCCCC1.O=C(O)C(F)(F)F.O=C(O)C(F)(F)F (stereo not drawn) [Compound 7, L,Dpa-Pro-Arg--k--Gly-Pip]
[1]
  APTT: 100.0 µM
Human α-thrombin
  Ki: 1.7 µM
[6]
  TT: 7.5 µM

## COCCCC(NC(=O)[C@@H]1CCCN1C(=O)[C@H](N)C(c1ccccc1)c1ccccc1)P(=O)(Oc1ccccc1)Oc1ccccc1 (stereo partly drawn) [Compound 32, H-D-Dpa-Pro-Mpg^P(OPh)2]
Xa; no incubation (first value of cell), read-out: Xa no inc
  IC50: 39.7 µM
Xa; with incubation (second value of cell), read-out: Xa inc
  IC50: > 18.7 µM
Urokinase; no incubation (first value of cell), read-out: Urokinase no inc
  IC50: 83 µM
Urokinase; with incubation (second value of cell), read-out: Urokinase inc
  IC50: > 18.7 µM
[4]; [7]
  IC50: 1.48 µM
[4]; with incubation, read-out: IC50 Inc.
  IC50: 0.00235 µM
Kalhikrein; no incubation (first value of cell), read-out: Kalhikrein no inc
  IC50: 66.7 µM
Kalhikrein; with incubation (second value of cell), read-out: Kalhikrein inc
  IC50: > 18.7 µM
Plasmin; no incubation (first value of cell), read-out: Plasmin no inc
  IC50: > 187 µM
Plasmin; with incubation (second value of cell), read-out: Plasmin inc
  IC50: 3.32 µM
Human α-thrombin; [8]
  Ki: 0.0048 µM
[6]
  TT: 9.1 µM

## N=C(N)NCCCC(NC(=O)C1CCCN1C(=O)C(N)Cc1ccc2ccccc2c1)C(=O)CCC(=O)N1CCCCC1 [Compound 54, D-β-Nal-Pro-Arg--k--Gly-Pip]
[1]
  APTT: 45.0 µM
Human α-thrombin; [8]
  Ki: 2.87 µM
[6]
  TT: 5.3 µM
